Experimental data: PubChem BioAssay (NCI)
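A five-concentration, 48-hour dose response in 96-well plates underlies each endpoint, interpolated linearly between surrounding concentrations. GI50: concentration for 50% inhibition of growth. The concentration for full growth arrest is given as TGI.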

How the values were obtained:
Assay in all cases: growth of human tumour cells (NCI), 48 h
SF-295 CNS = system: SF-295 CNS
HCT-15 colon = system: HCT-15 colon
PC-3 prostate = system: PC-3 prostate
MALME-3M melanoma = system: MALME-3M melanoma
SK-OV-3 ovarian = system: SK-OV-3 ovarian
OVCAR-3 ovarian = system: OVCAR-3 ovarian
ACHN renal = system: ACHN renal
RPMI-8226 leukemia = system: RPMI-8226 leukemia
UACC-62 melanoma = system: UACC-62 melanoma
HS 578T breast = system: HS 578T breast
SN12C renal = system: SN12C renal
DU-145 prostate = system: DU-145 prostate
KM12 colon = system: KM12 colon
SNB-19 CNS = system: SNB-19 CNS
MDA-MB-231 breast = system: MDA-MB-231 breast
CCRF-CEM leukemia = system: CCRF-CEM leukemia
SF-268 CNS = system: SF-268 CNS
COLO 205 colon = system: COLO 205 colon
NCI-H460 lung = system: NCI-H460 lung
U251 CNS = system: U251 CNS
OVCAR-8 ovarian = system: OVCAR-8 ovarian
NCI-H23 lung = system: NCI-H23 lung
MDA-MB-435 = system: MDA-MB-435
CAKI-1 renal = system: CAKI-1 renal
MCF7 breast = system: MCF7 breast
HOP-62 NSCLC = system: HOP-62 NSCLC
M14 melanoma = system: M14 melanoma
HCT-116 colon = system: HCT-116 colon
UO-31 renal = system: UO-31 renal
OVCAR-5 ovarian = system: OVCAR-5 ovarian
NCI-H522 lung = system: NCI-H522 lung
SK-MEL-5 melanoma = system: SK-MEL-5 melanoma
NCI-H226 lung = system: NCI-H226 lung
EKVX NSCLC = system: EKVX NSCLC
786-0 renal = system: 786-0 renal
K-562 leukemia = system: K-562 leukemia
SR leukemia = system: SR leukemia
RXF 393 renal = system: RXF 393 renal
HOP-92 NSCLC = system: HOP-92 NSCLC
A549 NSCLC = system: A549 NSCLC
LOX IMVI melanoma = system: LOX IMVI melanoma
TK-10 renal = system: TK-10 renal
IGROV1 ovarian = system: IGROV1 ovarian
NCI/ADR-RES ovarian = system: NCI/ADR-RES ovarian
SF-539 CNS = system: SF-539 CNS
UACC-257 melanoma = system: UACC-257 melanoma
SNB-75 CNS = system: SNB-75 CNS
MOLT-4 leukemia = system: MOLT-4 leukemia
SK-MEL-28 melanoma = system: SK-MEL-28 melanoma
SW-620 colon = system: SW-620 colon
HT29 colon = system: HT29 colon
OVCAR-4 ovarian = system: OVCAR-4 ovarian
SK-MEL-2 melanoma = system: SK-MEL-2 melanoma
BT-549 breast = system: BT-549 breast
HCC-2998 colon = system: HCC-2998 colon
HL-60(TB) leukemia = system: HL-60(TB) leukemia
A498 renal = system: A498 renal

## COc1cc(/C=C2\CN(S(=O)(=O)c3ccccc3)C/C(=C\c3cc(CN4CCCCC4)c(O)c(OC)c3)C2=O)cc(CN2CCCCC2)c1O
SF-295 CNS
  GI50: 2.25 µM
  TGI: 5.01 µM
HCT-15 colon
  GI50: 1.79 µM
  TGI: 3.78 µM
PC-3 prostate
  GI50: 1.73 µM
  TGI: 3.4 µM
MALME-3M melanoma
  GI50: 1.74 µM
  TGI: 3.39 µM
SK-OV-3 ovarian
  GI50: 1.93 µM
  TGI: 3.85 µM
OVCAR-3 ovarian
  GI50: 1.72 µM
  TGI: 3.25 µM
ACHN renal
  GI50: 1.54 µM
  TGI: 2.93 µM
RPMI-8226 leukemia
  GI50: 2.29 µM
  TGI: 5.11 µM
UACC-62 melanoma
  GI50: 1.65 µM
  TGI: 3.44 µM
HS 578T breast
  GI50: 1.63 µM
  TGI: 4.31 µM
SN12C renal
  GI50: 1.83 µM
  TGI: 3.63 µM
DU-145 prostate
  GI50: 1.73 µM
  TGI: 3.19 µM
KM12 colon
  GI50: 1.73 µM
  TGI: 3.41 µM
SNB-19 CNS
  GI50: 2 µM
  TGI: 4.58 µM
MDA-MB-231 breast
  GI50: 1.77 µM
  TGI: 3.47 µM
CCRF-CEM leukemia
  GI50: 2.62 µM
  TGI: 7.25 µM

## CN(NC(=O)/C(=C\c1ccco1)NC(=O)c1ccccc1)c1cn[nH]c(=O)c1Cl
SF-268 CNS
  TGI: > 100 µM
COLO 205 colon
  TGI: > 100 µM
NCI-H460 lung
  TGI: > 100 µM
SF-295 CNS
  TGI: > 100 µM
U251 CNS
  TGI: > 100 µM
OVCAR-8 ovarian
  TGI: > 100 µM
NCI-H23 lung
  TGI: > 100 µM
MDA-MB-435
  TGI: > 100 µM
CAKI-1 renal
  TGI: > 100 µM
HCT-15 colon
  TGI: > 100 µM
MCF7 breast
  TGI: > 100 µM
HOP-62 NSCLC
  TGI: > 100 µM
M14 melanoma
  TGI: > 100 µM
HCT-116 colon
  TGI: > 100 µM
UO-31 renal
  TGI: > 100 µM
OVCAR-5 ovarian
  TGI: > 100 µM
NCI-H522 lung
  TGI: 89.3 µM
PC-3 prostate
  TGI: > 100 µM
SK-MEL-5 melanoma
  TGI: 94.9 µM
NCI-H226 lung
  TGI: > 100 µM
MALME-3M melanoma
  TGI: > 100 µM
EKVX NSCLC
  TGI: > 100 µM
786-0 renal
  TGI: > 100 µM
K-562 leukemia
  TGI: > 100 µM
SK-OV-3 ovarian
  TGI: > 100 µM
SR leukemia
  TGI: > 100 µM
OVCAR-3 ovarian
  TGI: > 100 µM
RXF 393 renal
  TGI: > 100 µM
HOP-92 NSCLC
  TGI: > 100 µM
A549 NSCLC
  TGI: > 100 µM
LOX IMVI melanoma
  TGI: 58.2 µM
ACHN renal
  TGI: > 100 µM
RPMI-8226 leukemia
  TGI: 50.5 µM
TK-10 renal
  TGI: > 100 µM
IGROV1 ovarian
  TGI: > 100 µM
NCI/ADR-RES ovarian
  TGI: > 100 µM
SF-539 CNS
  TGI: 62 µM
UACC-62 melanoma
  TGI: > 100 µM
UACC-257 melanoma
  TGI: > 100 µM
SNB-75 CNS
  TGI: 84.2 µM
HS 578T breast
  TGI: > 100 µM
SN12C renal
  TGI: > 100 µM
MOLT-4 leukemia
  TGI: 93.3 µM
SK-MEL-28 melanoma
  TGI: > 100 µM
DU-145 prostate
  TGI: > 100 µM
KM12 colon
  TGI: > 100 µM
SNB-19 CNS
  TGI: > 100 µM
SW-620 colon
  TGI: > 100 µM
HT29 colon
  TGI: > 100 µM
OVCAR-4 ovarian
  TGI: > 100 µM
MDA-MB-231 breast
  TGI: > 100 µM
CCRF-CEM leukemia
  TGI: 62.4 µM
SK-MEL-2 melanoma
  TGI: > 100 µM

## CCOC(=O)N[C@H]1CCc2c(Br)c(OC)c(OC)c(OC)c2-c2ccc(SC)c(=O)cc21
BT-549 breast
  GI50: 0.0115 µM
  TGI: 8.97 µM
SF-268 CNS
  GI50: 0.0125 µM
  TGI: 15 µM
COLO 205 colon
  GI50: < 0.01 µM
  TGI: 0.0161 µM
NCI-H460 lung
  GI50: < 0.01 µM
  TGI: 1.61 µM
SF-295 CNS
  GI50: < 0.01 µM
  TGI: 3.79 µM
U251 CNS
  GI50: < 0.01 µM
  TGI: 14.1 µM
OVCAR-8 ovarian
  GI50: 0.0234 µM
  TGI: > 56.4 µM
NCI-H23 lung
  GI50: < 0.01 µM
  TGI: 24 µM
MDA-MB-435
  GI50: < 0.01 µM
HCC-2998 colon
  GI50: < 0.0155 µM
  TGI: 1.41 µM
CAKI-1 renal
  GI50: < 0.0228 µM
  TGI: 19.6 µM
HCT-15 colon
  GI50: < 0.01 µM
  TGI: 12.2 µM
MCF7 breast
  GI50: < 0.01 µM
  TGI: 12.7 µM
HOP-62 NSCLC
  GI50: 0.0232 µM
  TGI: 41.2 µM
M14 melanoma
  GI50: < 0.0128 µM
  TGI: 4.35 µM
HCT-116 colon
  GI50: < 0.01 µM
  TGI: 11.8 µM
UO-31 renal
  GI50: 0.131 µM
  TGI: 15.2 µM
OVCAR-5 ovarian
  GI50: 0.0357 µM
  TGI: 25.6 µM
NCI-H522 lung
  GI50: < 0.01 µM
  TGI: 10.1 µM
PC-3 prostate
  GI50: < 0.01 µM
  TGI: > 44.5 µM
SK-MEL-5 melanoma
  GI50: < 0.01 µM
  TGI: 0.0237 µM
NCI-H226 lung
  GI50: < 0.0165 µM
  TGI: 13.9 µM
MALME-3M melanoma
  GI50: < 0.01 µM
  TGI: 28.4 µM
EKVX NSCLC
  GI50: < 0.0112 µM
  TGI: > 83.2 µM
786-0 renal
  GI50: 0.0318 µM
  TGI: 25.1 µM
K-562 leukemia
  GI50: < 0.01 µM
  TGI: > 38.2 µM
SK-OV-3 ovarian
  GI50: < 0.01 µM
  TGI: 59.4 µM
SR leukemia
  GI50: < 0.01 µM
  TGI: > 37.3 µM
OVCAR-3 ovarian
  GI50: < 0.01 µM
HL-60(TB) leukemia
  GI50: < 0.01 µM
  TGI: 0.0131 µM
A498 renal
  GI50: < 0.01 µM
  TGI: < 0.0115 µM
RXF 393 renal
  GI50: < 0.01 µM
  TGI: 13.8 µM
HOP-92 NSCLC
  GI50: < 0.0137 µM
  TGI: 6.19 µM
A549 NSCLC
  GI50: < 0.0184 µM
  TGI: > 43 µM
LOX IMVI melanoma
  GI50: < 0.01 µM
  TGI: 12.5 µM
ACHN renal
  GI50: < 0.01 µM
  TGI: 15 µM
RPMI-8226 leukemia
  GI50: < 0.01 µM
  TGI: > 33.7 µM
TK-10 renal
  GI50: 3.8 µM
  TGI: > 60.4 µM
IGROV1 ovarian
  GI50: 0.0189 µM
  TGI: 16.2 µM
NCI/ADR-RES ovarian
  GI50: 0.025 µM
  TGI: 7.58 µM
SF-539 CNS
  GI50: < 0.01 µM
  TGI: < 0.0106 µM
UACC-62 melanoma
  GI50: < 0.01 µM
  TGI: 14.2 µM
UACC-257 melanoma
  GI50: 8.64 µM
  TGI: 45.2 µM
SNB-75 CNS
  GI50: < 0.01 µM
  TGI: 16.1 µM
HS 578T breast
  GI50: < 0.01 µM
  TGI: 37.3 µM
SN12C renal
  GI50: < 0.0178 µM
  TGI: 19.8 µM
MOLT-4 leukemia
  GI50: < 0.0108 µM
  TGI: > 45.3 µM
SK-MEL-28 melanoma
  GI50: 8.06 µM
  TGI: 23.4 µM
DU-145 prostate
  GI50: < 0.01 µM
  TGI: 0.125 µM
KM12 colon
  GI50: < 0.01 µM
  TGI: 3.79 µM
SNB-19 CNS
  GI50: < 0.01 µM
  TGI: 26.5 µM
SW-620 colon
  GI50: < 0.01 µM
  TGI: 16.7 µM
HT29 colon
  GI50: < 0.01 µM
  TGI: > 34.5 µM
OVCAR-4 ovarian
  GI50: 0.0608 µM
  TGI: > 53.5 µM
MDA-MB-231 breast
  GI50: < 0.01 µM
  TGI: 5.17 µM
CCRF-CEM leukemia
  GI50: < 0.01 µM
  TGI: > 42 µM

## Cc1ccc(NC(=O)c2[nH]c(SCCN(C)C)nc2-c2ccc(F)cc2)cc1C#Cc1cnc2cccnn12
UO-31 renal
  GI50: 1.38 µM
  TGI: 2.79 µM
PC-3 prostate
  GI50: 2.12 µM
  TGI: 4.89 µM
K-562 leukemia
  GI50: 0.127 µM
  TGI: 1.55 µM
SK-OV-3 ovarian
  GI50: 1.92 µM
  TGI: 3.44 µM
SR leukemia
  GI50: 0.46 µM
  TGI: 2.22 µM
HL-60(TB) leukemia
  GI50: 1.38 µM
  TGI: 3.14 µM
A498 renal
  GI50: 1.76 µM
  TGI: 3.32 µM
HOP-92 NSCLC
  GI50: 1.08 µM
  TGI: 2.73 µM
RPMI-8226 leukemia
  GI50: 1.91 µM
  TGI: 6.05 µM
UACC-257 melanoma
  GI50: 1.88 µM
  TGI: 3.51 µM
SNB-75 CNS
  GI50: 1.59 µM
  TGI: 2.99 µM
MOLT-4 leukemia
  GI50: 1.93 µM
  TGI: 4.83 µM
DU-145 prostate
  GI50: 1.83 µM
  TGI: 3.34 µM
CCRF-CEM leukemia
  GI50: 2.08 µM
  TGI: 6.92 µM
SK-MEL-2 melanoma
  GI50: 1.35 µM
  TGI: 3.16 µM
